What was measured:
[1] = system: HRV (RV16)-induced IL-8 release in BEAS2B cells; assay: Rhinovirus-induced IL-8 release in BEAS2B cells; type: cell-based, human
Description: Human rhinovirus RV16 is obtained from the American Type Culture Collection (Manassas, Va.). Viral stocks are generated by infecting MRC5 cells with HRV until 80% of the cells were cytopathic.
BEAS2B cells are infected with HRV at an MOI of 1.2 and incubated for 1 h at 33° C. with gentle shaking to promote absorption. The cells are then washed with PBS, fresh media added and the cells are incubated for a further 72 h. The supernatant is collected for assay of IL-8 concentrations using a Duoset ELISA development kit (R&D systems, Minneapolis, Minn.). Compounds are added 2 h before HRV infection and 1 h after infection when non-infected HRV is washed out.

[2] = system: d-U937 cells; assay: Cell viability: MTT assay in differentiated U937 cells; type: cell-based, human; conditions: 10 μg/mL
Description: Differentiated U937 cells were pre-incubated with each test compound (final concentration 10 μg/mL in 200 μL media indicated below) under two protocols: the first for 4 h in 5% FCS RPMI1640 media and the second in 10% FCS RPMI1640 media for 24 h. The supernatant was replaced with new media (200 μL) and MTT stock solution (10 μL, 5 mg/mL) was added to each well. After incubation for 1 h the media were removed, DMSO (200 μL) was added to each well and the plates were shaken lightly for 1 h prior to reading the absorbance at 550 nm. The percentage loss of cell viability was calculated for each well relative to vehicle (0.5% DMSO) treatment. Consequently an apparent increase in cell viability for drug treatment relative to vehicle is tabulated as a negative percentage.

[3] = biological target: T1, Syk (Homo sapiens, UniProt P43405); assay: Syk enzyme inhibition (Z-LYTE FRET); type: biochemical
T1 construct: purchased Life Technologies
Description: (§1) The enzyme inhibitory activities of compounds disclosed herein were determined by FRET using synthetic peptides labelled with both donor and acceptor fluorophores (Z-LYTE, Life Technologies, Paisley, UK).
The relevant enzyme (1000 ng/mL, 1400 ng/mL or 2000 ng/mL respectively, 2.5 μL) was incubated with the test compound (either 40 μg/mL, 12 μg/mL, 4 μg/mL, 1.2 μg/mL, 0.4 μg/mL, 0.12 μg/mL, 0.04 μg/mL, 0.012 μg/mL, 0.004 μg/mL or 0.0012 μg/mL, 2.5 μL each) for 2 h at RT. The FRET peptides (8 μM, 2.5 μL), and appropriate ATP solutions (2.5 μL, 800 μM for c-Src, and 60 μM ATP for HCK and Syk) were then added to the enzyme/compound mixtures and incubated for 1 h at RT. Development reagent (protease, 5 μL) was added for 1 h prior to detection in a fluorescence microplate reader (EnVision, Perkin Elmer).
(§2) In all cases, the site-specific protease cleaves non-phosphorylated peptide only and eliminates the FRET signal. Phosphorylation levels of each reaction were calculated using the ratio of coumarin emission (donor) over fluorescein emission (acceptor), for which low ratios indicate high phosphorylation and high ratios indicate low phosphorylation levels.

[4] = biological target: T2, GSK 3α enzyme isoform (Homo sapiens, UniProt P49840); assay: GSK 3α enzyme inhibition (Z-LYTE FRET); type: biochemical
T2 construct: purchased Life Technologies
T2 sequence (P49840 whole entry, canonical isoform): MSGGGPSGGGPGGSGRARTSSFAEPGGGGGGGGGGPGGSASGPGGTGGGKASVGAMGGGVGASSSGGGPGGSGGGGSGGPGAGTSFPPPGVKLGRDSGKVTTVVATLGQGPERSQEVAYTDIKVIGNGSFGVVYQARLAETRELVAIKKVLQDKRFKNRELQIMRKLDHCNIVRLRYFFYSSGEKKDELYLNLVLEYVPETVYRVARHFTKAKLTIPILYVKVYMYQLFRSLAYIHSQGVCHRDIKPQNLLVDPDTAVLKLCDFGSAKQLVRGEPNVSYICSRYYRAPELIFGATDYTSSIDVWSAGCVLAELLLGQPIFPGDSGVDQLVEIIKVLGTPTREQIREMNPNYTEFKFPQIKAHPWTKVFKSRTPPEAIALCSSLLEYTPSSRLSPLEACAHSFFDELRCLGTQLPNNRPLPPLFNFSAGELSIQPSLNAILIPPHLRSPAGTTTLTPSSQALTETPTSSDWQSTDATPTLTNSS
Description: as §1
The GSK3a protein (500 ng/mL, 2.5 μL) was incubated with the test compound (2.5 μL at either 40 μg/mL, 12 μg/mL, 4 μg/mL, 1.2 μg/mL, 0.4 μg/mL, 0.12 μg/mL, 0.04 μg/mL, 0.012 μg/mL, 0.004 μg/mL or 0.0012 μg/mL) for 2 h at RT. The FRET peptide (8 μM, 2.5 μL), which is a phosphorylation target for GSK3α, and ATP (40 μM, 2.5 μL) was then added to the enzyme/compound mixture and the resulting mixture incubated for 1 h at RT. Development reagent (protease, 5 μL) was added for 1 h prior to detection in a fluorescence microplate reader (EnVision, Perkin Elmer).
as §2

[5] = system: sputum macrophages from COPD patients; assay: Cytokine production in LPS-treated sputum macrophages from COPD patients; type: cell-based, human
Description: Patients with COPD inhaled a nebulised solution of 3% (w/v) hypertonic saline using an ultrasonic nebuliser (Devilbiss, Carthage, Mo.) with tidal breathing for 5 min. This procedure was repeated a maximum of three times until enough sputum was obtained. The sputum samples were homogenized and mixed vigorously using a vortex mixer in 0.02% v/v dithiothreitol (DTT) solution. The samples were re-suspended in PBS (40 mL) followed by centrifugation at 1500 rpm at 4° C. for 10 min to obtain sputum cell pellets. The pellets were washed with PBS (40 mL). The sputum cells were then re-suspended in 4 mL macrophage serum-free medium (macrophage-SFM, Life technologies, containing 20 U/mL penicillin, 0.02 mg/mL streptomycin and 5 μg/mL amphotericin B) and seeded on high bound 96-well plate, followed by incubation for 1 h at 37° C. and at 5% CO2 to allow the macrophages to attach to the bottom of the plate. The cells on the plate were washed with fresh macrophage-SFM (200 μL/well) to remove neutrophils and other contaminated cells. The adherent cells (mainly sputum macrophages) on the plate were used for further analysis. Sputum inductions were conducted in Quintiles Drug Research Unit at Guys Hospital and ethics approval and written informed consent was obtained by Quintiles.
Where appropriate, 1 μL of a solution containing either the test compound or reference article at the stated concentrations (either 0.1 μg/mL, 0.01 μg/mL, or 0.001 μg/mL) or alternatively 1 μL of DMSO as the vehicle control was added to each well (200 μL in media) and the cells were incubated for 2 h. The cells were stimulated with LPS solution (50 μL, final concentration: 1 μg/mL) and incubated for 18 h at 37° C. and 5% CO2. The supernatant was then collected and kept at −80° C. Suitable luminex kits were used to measure the selected analytes. After thawing the supernatant, the magnetic antibody beads were multiplexed and incubated in a 96-well plate with standard, background solution or the appropriate volume of sample overnight with shaking at 4° C. After washing twice with 200 μL of wash buffer provided by the kit per well using a magnetic plate washer, the beads were incubated for 1 h at RT with the biotin conjugated antibody solution provided by the kit with shaking. Streptavidin solution was added for 30 min with shaking at RT. After washing with 200 μL wash buffer per well, the beads were resuspended in sheath fluid (150 μL) and analyzed immediately. The level of each analyte in the supernatant was calculated using Xcel Fit software with a 4 or 5-parameter equation using each standard curve. The inhibitions of each cytokine production were calculated at each concentration by comparison with vehicle control.

[6] = system: PBMCs (mitosis); assay: Cell mitosis assay in PHA-treated PBMCs; type: cell-based, human
Description: Peripheral blood mononucleocytes (PBMCs) from healthy subjects were separated from whole blood (Quintiles, London, UK) using a density gradient (Histopaquee-1077, Sigma-Aldrich, Poole, UK). The PBMCs (3 million cells per sample) were subsequently treated with 2% PHA (Sigma-Aldrich, Poole, UK) for 48 h, followed by a 20 h exposure to varying concentrations of test compounds. At 2 h before collection, PBMCs were treated with demecolcine (0.1 μg/mL; Life Technologies, Paisley, UK,) to arrest cells in metaphase.

[7] = system: alveolar macrophages and neutrophils in BALF; assay: Cigarette smoke model: macrophages and neutrophils in BALF; type: in vivo, A/J mice; conditions: 1.75 μg/mouse (35 μL, bid, i.n.)
Description: A/J mice (males, 5 weeks old) were exposed to cigarette smoke (4% cigarette smoke, diluted with air) for 30 min/day for 11 days using a Tobacco Smoke Inhalation Experiment System for small animals (Model SIS-CS; Sibata Scientific Technology, Tokyo, Japan). […] At 12 h after the last […], each of the animals was anesthetized, the trachea cannulated and bronchoalveolar lavage fluid (BALF) was collected. The numbers of alveolar macrophages and neutrophils were determined by FACS analysis (EPICS® ALTRA II, Beckman Coulter, Inc., Fullerton, Calif., USA) using anti-mouse MOMA2 antibody (macrophage) or anti-mouse 7/4 antibody (neutrophil). BALF was centrifuged and the supernatant was collected. The level of keratinocyte chemoattractant (KC; CXCL1) in BALF was quantitated using a Quantikine® mouse KC ELISA kit (R&D systems, Inc., Minneapolis, Minn., USA).

[8] = system: neutrophil accumulation in BALF; assay: LPS-induced neutrophil accumulation in mice; type: in vivo, Balb/c mice; conditions: 1.75 μg/mouse
Description: Non-fasted Balb/c mice were […] by the intra tracheal route with either vehicle, or the test substance at the indicated times (within the range 2-8 h) before stimulation of the inflammatory response by application of an LPS challenge. At T=0, mice were placed into an exposure chamber and exposed to LPS (7.0 mL, 0.5 mg/mL solution in PBS for 30 min). After a further 8 h the animals were anesthetized, their tracheas cannulated and BALF extracted by infusing and then withdrawing from their lungs 1.0 mL of PBS via the tracheal catheter. Total and differential white cell counts in the BALF samples were measured using a Neubaur haemocytometer. Cytospin smears of the BALF samples were prepared by centrifugation at 200 rpm for 5 min at RT and stained using a DiffQuik stain system (Dade Behring). Cells were counted using oil immersion microscopy. Data for neutrophil numbers in BAL are shown as mean±S.E.M. (standard error of the mean). The percentage inhibition of neutrophil accumulation was calculated for each treatment relative to vehicle treatment.

| impact on cell division (mitosis) compared with Reference Compound [6] | Structure (SMILES) | inhibition of HRV-induced IL-8 (FIG. 1) [1] | MTT Assay Cell viability at time point indicated in d-U937 Cells, 4 h ([2]; 4 h) | MTT Assay Cell viability at time point indicated in d-U937 Cells, 24 h ([2]; 24 h) | inhibitory activity against Syk (in words) [3] | inhibitory activity against GSK3a (in words) [4] | inhibition of pro-inflammatory cytokine production in sputum macrophage compared with fluticasone propionate [5] | neutrophil or macrophage accumulation into airways (cigarette smoke model) [7] | inhibition at 0.1 µg/mL ([5]; Homo sapiens, Macrophage, read-out: E-max (maximum inhibition), IL-6 production in LPS-treated sputum macrophages) | inhibition of LPS-induced neutrophil accumulation [8] |
| --- | --- | --- | --- | --- | --- | --- | --- | --- | --- | --- |
| markedly less activity | CCc1cncc(Nc2cc(COc3ccc(NC(=O)Nc4cc(C(C)(C)C)nn4-c4ccc(C)cc4)c4ccccc34)ccn2)n1 [Example 2, 1-(3-(tert-Butyl)-1-(p-tolyl)-1H-pyrazol-5-yl)-3-(4-((2-((6-ethylpyrazin-2-yl)amino)pyridin-4-yl)methoxy)naphthalen-1-yl)urea] | dose-dependent inhibition | − (−ve and +ve indicate the value is below and above, respectively, the no significant effect threshold defined as 30% inhibition at 10 μg/mL at the time point indicated) | − (−ve and +ve indicate the value is below and above, respectively, the no significant effect threshold defined as 30% inhibition at 10 μg/mL at the time point indicated) | very much weaker than the Reference Compound | very much weaker than the Reference Compound | higher efficacy | – | – | – |
| – | CCC(=O)O[C@]1(C(=O)SCF)[C@H](C)C[C@H]2[C@@H]3C[C@H](F)C4=CC(=O)C=C[C@]4(C)[C@@]3(F)[C@@H](O)C[C@@]21C [Fluticasone propionate, fluticasone propionate, reference compound] | – | – | – | – | – | – | did not inhibit | 42% | > 80% |
